Measurements reported in patent US6589988B1, “Pharmaceutical composition with antitumor activity on the basis of carboplatin” (Pliva-Lachema, a.s., priority 1998, dated 2003).

How the values were obtained:
Assay type in all cases: physicochemical
[1] = Decomposition rates of carboplatin calculated from equation /1-7/ (Arrhenius evaluation); conditions: for calculated decomposition rate of carboplatin (r) / rate increase: 25° C.; for calculated decomposition rate of carboplatin (r): from equation /1-7/
Experimental: After evaluation of Arrhenius equation, the activation energy EA was calculated:
For the reference temperature of 35° C., at which the best determination coefficient has been obtained (R^2=0.99), the following dependence of the decomposition rate of carboplatin on the concentration of the present 1,1-cyclobutanedicarboxylic acid and on the temperature may be obtained from the equations /1-5/ and /1-6/: [formula]
wherein r is expressed in mol·m^−3·s^−1 and CCBDCA is expressed in mol·m^−3.
Based on the equation /1-7/, it is possible to calculate decomposition rates of carboplatin at the temperature of 25° C. and for different concentrations of 1,1-cyclobutanedicarboxylic acid: […]

[2] = Decomposition rate of carboplatin in aqueous solution in dependence on the concentration of 1,1-cyclobutanedicarboxylic acid; conditions: for decomposition rate of carboplatin (r): carboplatin 10.0 mg·ml^−1
Experimental: The rate of hydrolysis of carboplatin to a monoaquacomplex of the formula (1) has been presumed to be of the first order in relation to carboplatin concentration and independent to water concentration: [formula]
Dependences on concentration according to equations /1-2/ and /1-3/ were evaluated by linear regression and the rate constant and/or the reaction rate of the carboplatin decomposition have been calculated.
Study of the decomposition rate of carboplatin in dependence on the concentration of 1,1-cyclobutanedicarboxylic acid.
Mean starting concentration of carboplatin was 10.0 mg·ml^−1. Starting concentrations of 1,1-cyclobutanedicarboxylic acid were 0.017, 0.129, 1.189 and 14.804 mg·ml^−1. The temperature and relative humidity during storage was 25° C./60% and 35° C./60%. The vials with samples were stored stopper upright.
The decrease of carboplatin content was calculated as a difference of carboplatin content between a reference and measured sample. The concentration data were evaluated according to equation /1-2/, whereby, due to a good linear relation, the data were evaluated by linear regression.

[3] = as above; conditions: 0.1 M phosphate buffer at 37° C. versus 1.4·10^−4M CBDCA-buffer at 40° C.

**Q.** For `N.N.O=C([O-])C1(C(=O)[O-])CCC1.[Pt+2]` [carboplatin, cis-diammin-1,1-cyclobutanedicarboxylatoplatinum(II) complex], which “calculated decomposition rate of carboplatin (r)” value (“calculated decomposition rate” for short) ([1]; CBDCA 0.005 mg/ml) is on record?
**A.** 4.48·10^−9 mol·m^−3·s^−1

**Q.** What about the “calculated decomposition rate” value ([1]; CBDCA 0.150 mg/ml (as in Ribocarbol L)) of the same compound?
**A.** 4.58·10^−9 mol·m^−3·s^−1

**Q.** And the rate increase ([1]; CBDCA 0.150 mg/ml versus 0.005 mg/ml)?
**A.** 2.2%

**Q.** And the “calculated decomposition rate” value ([1]; CBDCA 0.250 mg/ml (lower limit of EP 642 792))?
**A.** 4.65·10^−9 mol·m^−3·s^−1

**Q.** What about the rate increase ([1]; CBDCA 0.250 mg/ml versus 0.005 mg/ml) of the same compound?
**A.** 4%

**Q.** What about the “activation energy EA of carboplatin decomposition” value ([1]; Arrhenius equation, from rates at 25 and 35° C.) of the same compound?
**A.** 190 000 J·mol^−1

**Q.** And the “increase of the decomposition rate of carboplatin” value ([2]; enhancement of temperature of 10° C.)?
**A.** approximately tenfold

**Q.** And the “decomposition rate of carboplatin (r)” value ([2]; storage 25° C./60% RH, CBDCA 0.017 mg·ml^−1)?
**A.** 4.0 · 10^−9 mol·m^−3·s^−1

**Q.** What about the “decomposition rate of carboplatin (r)” value ([2]; storage 25° C./60% RH, CBDCA 0.129 mg·ml^−1) of the same compound?
**A.** 4.0 · 10^−9 mol·m^−3·s^−1

**Q.** What about the “decomposition rate of carboplatin (r)” value ([2]; storage 25° C./60% RH, CBDCA 1.189 mg·ml^−1) of the same compound?
**A.** 9.4 · 10^−9 mol·m^−3·s^−1

**Q.** What about the “decomposition rate of carboplatin (r)” value ([2]; storage 25° C./60% RH, CBDCA 14.804 mg·ml^−1) of the same compound?
**A.** 2.2 · 10^−8 mol·m^−3·s^−1

**Q.** And the “decomposition rate of carboplatin (r)” value ([2]; storage 35° C./60% RH, CBDCA 0.017 mg·ml^−1)?
**A.** 4.9 · 10^−8 mol·m^−3·s^−1

**Q.** And the “decomposition rate of carboplatin (r)” value ([2]; storage 35° C./60% RH, CBDCA 0.129 mg·ml^−1)?
**A.** 5.1 · 10^−8 mol·m^−3·s^−1

**Q.** What about the “decomposition rate of carboplatin (r)” value ([2]; storage 35° C./60% RH, CBDCA 1.189 mg·ml^−1) of the same compound?
**A.** 7.3 · 10^−8 mol·m^−3·s^−1

**Q.** What about the “decomposition rate of carboplatin (r)” value ([2]; storage 35° C./60% RH, CBDCA 14.804 mg·ml^−1) of the same compound?
**A.** 1.7 · 10^−7 mol·m^−3·s^−1

**Q.** What about the “rate constant k, ratio” value [3] of the same compound?
**A.** approximately 200 times
